Assay results from US11318137B2, “Quinazoline compounds as modulators of Ras signaling” (VANDERBILT UNIVERSITY, priority 2017, dated 2022).

Legend:
Son of Sevenless (SOS) = biological target: T1, Son of Sevenless (SOS) (Homo sapiens, UniProt Q07889); assay: Binding to SOS, fluorescence polarization anisotropy (FPA) displacement of FITC-conjugated probe; settings: binding affinity calculated from IC50 of FITC-probe displacement, read-out: Binding affinities (binding affinity to SOS)
T1 sequence (Q07889 564-1049 limits assumed): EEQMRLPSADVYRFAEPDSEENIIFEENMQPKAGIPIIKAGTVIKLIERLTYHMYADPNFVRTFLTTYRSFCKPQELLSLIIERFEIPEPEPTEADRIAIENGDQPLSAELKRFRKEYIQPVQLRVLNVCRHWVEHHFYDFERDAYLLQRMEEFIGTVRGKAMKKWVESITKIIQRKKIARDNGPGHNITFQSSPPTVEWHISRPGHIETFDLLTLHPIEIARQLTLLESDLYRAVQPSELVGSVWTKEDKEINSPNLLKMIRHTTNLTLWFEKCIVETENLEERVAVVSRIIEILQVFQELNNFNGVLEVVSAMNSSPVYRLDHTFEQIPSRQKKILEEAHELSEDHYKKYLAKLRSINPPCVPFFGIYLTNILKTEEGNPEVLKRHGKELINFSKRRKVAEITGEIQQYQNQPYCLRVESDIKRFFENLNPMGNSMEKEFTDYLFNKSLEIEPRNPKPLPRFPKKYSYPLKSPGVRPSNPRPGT
Description: Compounds of the present invention were tested for their ability to the Ras guanine exchange factor (GEF) Son of Sevenless (SOS). Binding to SOS was measured using a Fluorescence polarization anisotropy (FPA) assay that assesses the ability of a test compound to displace a fluorescent FITC-conjugated compound. Briefly, the labeled probe compound is incubated with SOS in buffer. Changes in anisotropy indicative of displacement of the labeled probe for a test compound are assessed over a dose range of test compound. Data was analyzed by plotting fluorescence anisotropy values as a function of compound concentration. IC50 values were determined using a four-parameter dose-response (variable slope) and binding affinities were calculated from this IC50 value. This assay is performed in a method analogous to the assay disclosed in: Burns, M. C.; Sun, Q.; Daniels, R. N.; Camper, D. V.; Kennedy, J. P.; Phan, J.; Olejniczak, E. O.; Lee, T.; Waterson, A. G.; Rossanese, O. W.; Fesik, S. W. “Approach for targeting Ras with small molecules that activate SOS-mediated nucleotide exchange” Proc. Natl. Acad. Sci. 2014; 11(9): 3401-3406. PMCID: PMC3948241.

[1] = biological target: T2, SOS-mediated nucleotide exchange on Ras (Homo sapiens, UniProt Q07889); assay: SOS-mediated nucleotide exchange on Ras (BODIPY-GDP fluorescence); type: biochemical; settings: Ras loaded with BODIPY-GDP, GTP and SOS added; EC50 from derived exchange rates
T2 sequence (Q07889 1-1333): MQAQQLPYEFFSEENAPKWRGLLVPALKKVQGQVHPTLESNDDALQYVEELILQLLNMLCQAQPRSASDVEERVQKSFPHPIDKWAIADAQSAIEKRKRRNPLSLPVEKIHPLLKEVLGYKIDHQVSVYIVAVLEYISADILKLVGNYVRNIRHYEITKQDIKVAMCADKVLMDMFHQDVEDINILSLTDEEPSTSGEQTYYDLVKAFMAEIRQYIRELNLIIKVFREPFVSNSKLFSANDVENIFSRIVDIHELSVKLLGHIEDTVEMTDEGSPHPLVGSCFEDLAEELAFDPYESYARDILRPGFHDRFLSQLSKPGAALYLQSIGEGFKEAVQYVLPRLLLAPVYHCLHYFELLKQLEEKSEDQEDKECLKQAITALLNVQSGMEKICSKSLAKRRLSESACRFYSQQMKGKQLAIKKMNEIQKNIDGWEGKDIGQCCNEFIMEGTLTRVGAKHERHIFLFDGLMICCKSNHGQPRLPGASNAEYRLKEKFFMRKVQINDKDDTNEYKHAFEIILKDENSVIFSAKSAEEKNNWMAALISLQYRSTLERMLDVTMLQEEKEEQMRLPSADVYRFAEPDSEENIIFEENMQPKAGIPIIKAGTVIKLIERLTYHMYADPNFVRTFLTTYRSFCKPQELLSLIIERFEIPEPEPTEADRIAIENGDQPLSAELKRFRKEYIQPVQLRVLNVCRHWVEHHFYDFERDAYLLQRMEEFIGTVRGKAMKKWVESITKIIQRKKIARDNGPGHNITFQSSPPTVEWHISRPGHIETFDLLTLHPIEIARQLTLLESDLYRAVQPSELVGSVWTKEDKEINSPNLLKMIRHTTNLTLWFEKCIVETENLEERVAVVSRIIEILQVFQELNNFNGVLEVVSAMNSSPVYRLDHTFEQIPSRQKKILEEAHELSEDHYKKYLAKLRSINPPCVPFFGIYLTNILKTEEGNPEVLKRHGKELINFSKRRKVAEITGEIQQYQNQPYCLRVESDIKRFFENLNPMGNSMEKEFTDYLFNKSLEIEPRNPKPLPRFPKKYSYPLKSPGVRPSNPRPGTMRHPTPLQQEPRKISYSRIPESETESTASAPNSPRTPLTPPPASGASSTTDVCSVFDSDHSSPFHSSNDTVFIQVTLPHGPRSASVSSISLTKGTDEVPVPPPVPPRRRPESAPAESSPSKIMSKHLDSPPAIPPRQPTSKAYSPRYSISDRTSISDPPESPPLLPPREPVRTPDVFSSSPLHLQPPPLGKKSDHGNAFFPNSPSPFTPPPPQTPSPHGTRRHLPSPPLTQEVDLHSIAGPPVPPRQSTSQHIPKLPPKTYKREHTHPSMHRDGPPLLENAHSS
Outline: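 Compound, then GTP and SOS, were added to buffered Ras preloaded with BODIPY-GDP, and the fluorescence change from labeled GDP being exchanged for GTP was followed over time. Rates came from single-exponential fits, and EC50 from a four-parameter fit of mean rate against compound concentration.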

| SMILES | Ki (Son of Sevenless (SOS)) [µM] | EC50 [1] [µM] |
| --- | --- | --- |
| C[C@@H](Nc1nc(Nc2ccc(F)c(Cl)c2)nc2c(CCN)cccc12)c1cccs1 [Example 91, (R)-8-(2-aminoethyl)-N^2-(3-chloro-4-fluorophenyl)-N^4-(1-(thiophen-2-yl)ethyl)quinazoline-2,4-diamine] | 1 to 5 | 5 to 30 |
| Cc1cc(F)cc(Nc2nc(N[C@H](C)c3cccs3)c3cccc(CCN)c3n2)c1 [Example 92, (R)-8-(2-aminoethyl)-N^2-(3-fluoro-5-methylphenyl)-N^4-(1-(thiophen-2-yl)ethyl)quinazoline-2,4-diamine] | > 5 | 5 to 30 |
| C[C@@H](Nc1nc(NCC2CCCCC2)nc2c(CCN)cccc12)c1cccs1 [Example 93, (R)-8-(2-aminoethyl)-N^2-(cyclohexylmethyl)-N^4-(1-(thiophen-2-yl)ethyl)quinazoline-2,4-diamine] | < 1 | 5 to 30 |
| C[C@@H](Nc1nc(NCc2cccc(Cl)c2F)nc2c(CCN)cccc12)c1cccs1 [Example 94, (R)-8-(2-aminoethyl)-N^2-(3-chloro-2-fluorobenzyl)-N^4-(1-(thiophen-2-yl)ethyl)quinazoline-2,4-diamine] | 1 to 5 | 1 to 5 |
| Cc1cc(F)cc(Nc2nc(N[C@H](C)c3cccs3)c3cccc(CN)c3n2)c1 [Example 95, (R)-8-(aminomethyl)-N^2-(3-fluoro-5-methylphenyl)-N^4-(1-(thiophen-2-yl)ethyl)quinazoline-2,4-diamine] | > 5 | 5 to 30 |
| C[C@@H](Nc1nc(NCc2cccc(Cl)c2F)nc2c(CN)cccc12)c1cccs1 [Example 97, (R)-8-(aminomethyl)-N^2-(3-chloro-2-fluorobenzyl)-N^4-(1-(thiophen-2-yl)ethyl)quinazoline-2,4-diamine] | > 5 | 5 to 30 |
| C[C@@H](Nc1nc(NCC2CCCCCC2)nc2c(C3=CCNCC3)cccc12)C1CC1 [Example 103, (R)—N^2-(cycloheptylmethyl)-N^4-(1-cyclopropylethyl)-8-(1,2,3,6-tetrahydropyridin-4-yl)quinazoline-2,4-diamine] | > 5 | 5 to 30 |
| C[C@@H](Nc1nc(NCC2CCCC2)nc2c(C3=CCNCC3)cccc12)C1CC1 [Example 105, (R)—N^2-(cyclopentylmethyl)-N^4-(1-cyclopropylethyl)-8-(1,2,3,6-tetrahydropyridin-4-yl)quinazoline-2,4-diamine] | 1 to 5 | 1 to 5 |
| C[C@@H](Nc1nc(NCC2CCC2)nc2c(C3=CCNCC3)cccc12)C1CC1 [Example 106, (R)—N^2-(cyclobutylmethyl)-N^4-(1-cyclopropylethyl)-8-(1,2,3,6-tetrahydropyridin-4-yl)quinazoline-2,4-diamine] | 1 to 5 | < 1 |
| Cc1cc(F)cc(Nc2nc(N[C@H](C)C3CC3)c3cccc(C4=CCNCC4)c3n2)c1 [Example 107, (R)—N^4-(1-cyclopropylethyl)-N^2-(3-fluoro-5-methylphenyl)-8-(1,2,3,6-tetrahydropyridin-4-yl)quinazoline-2,4-diamine] | 1 to 5 | 1 to 5 |
| Cc1cc(F)cc(Nc2nc(NC(C3CC3)C3CC3)c3cccc(C4=CCNCC4)c3n2)c1 [Example 108, N^4-(dicyclopropylmethyl)-N^2-(3-fluoro-5-methylphenyl)-8-(1,2,3,6-tetrahydropyridin-4-yl)quinazoline-2,4-diamine] | 1 to 5 | 1 to 5 |
| C[C@@H](Nc1nc(Nc2ccc(F)c(Cl)c2)nc2c(NCC3CNC3)cccc12)C1CC1 [Example 111, (R)—N^8-(azetidin-3-ylmethyl)-N^2-(3-chloro-4-fluorophenyl)-N^4-(1-cyclopropylethyl)quinazoline-2,4,8-triamine] | > 5 | 5 to 30 |
| C[C@@H](Nc1nc(Nc2ccc(F)c(Cl)c2)nc2c(NC3CNC3)cccc12)C1CC1 [Example 112, (R)—N^8-(azetidin-3-yl)-N^2-(3-chloro-4-fluorophenyl)-N-(1-cyclopropylethyl)quinazoline-2,4,8-triamine] | > 5 | 1 to 5 |
| C[C@@H](Nc1nc(Nc2ccc(F)c(Cl)c2)nc2c(CC3CNC3)cccc12)C1CC1 [Example 113, (R)-8-(azetidin-3-ylmethyl)-N^2-(3-chloro-4-fluorophenyl)-N^4-(1-cyclopropylethyl)quinazoline-2,4-diamine] | 1 to 5 | 1 to 5 |
| C[C@@H](Nc1nc(Nc2ccc(F)c(Cl)c2)nc2c(CC3CC(N)C3)cccc12)C1CC1 (stereo partly drawn) [Example 114, (R)-8-((3-aminocyclobutyl)methyl)-N^2-(3-chloro-4-fluorophenyl)-N^4-(1-cyclopropylethyl)quinazoline-2,4-diamine] | 1 to 5 | 1 to 5 |
| C=CC[C@@H](Nc1nc(Nc2ccc(F)c(Cl)c2)nc2c(C3=CCNCC3)cccc12)C1CC1 [Example 115, (R)—N^2-(3-chloro-4-fluorophenyl)-N^4-(1-cyclopropylbut-3-en-1-yl)-8-(1,2,3,6-tetrahydropyridin-4-yl)quinazoline-2,4-diamine] | 1 to 5 | 1 to 5 |
| C=CC[C@@H](Nc1nc(Nc2cc(F)cc(F)c2)nc2c(C3=CCNCC3)cccc12)C1CC1 [Example 116, (R)—N^4-(1-cyclopropylbut-3-en-1-yl)-N^2-(3,5-difluorophenyl)-8-(1,2,3,6-tetrahydropyridin-4-yl)quinazoline-2,4-diamine] | < 1 | 1 to 5 |
| C=CC[C@@H](Nc1nc(NCC2CCCCC2)nc2c(C3=CCNCC3)cccc12)C1CC1 [Example 117, (R)—N^2-(cyclohexylmethyl)-N^4-(1-cyclopropylbut-3-en-1-yl)-8-(1,2,3,6-tetrahydropyridin-4-yl)quinazoline-2,4-diamine] | < 1 | 1 to 5 |
| Cc1cc(F)cc(Nc2nc(N[C@H](C)C3CC3)c3cccc(CCN)c3n2)c1 [Example 118, (R)-8-(2-aminoethyl)-N^4-(1-cyclopropylethyl)-N^2-(3-fluoro-5-methylphenyl)quinazoline-2,4-diamine] | 1 to 5 | 1 to 5 |
| C[C@@H](Nc1nc(NCc2cccc(Cl)c2F)nc2c(CCN)cccc12)C1CC1 [Example 119, (R)-8-(2-aminoethyl)-N^2-(3-chloro-2-fluorobenzyl)-N^4-(1-cyclopropylethyl)quinazoline-2,4-diamine] | 1 to 5 | 1 to 5 |
